In patent US11649227B2, “Allosteric chromenone inhibitors of phosphoinositide 3-kinase (PI3K) for the treatment of disease” (Petra Pharma Corporation, priority 2020, dated 2023):
pEC50, pIC50: −log10 of the molar value. Read-outs that look alike come from different tables or passages of the source.

Tests used:
[1] = Mouse PK Assays; conditions: in vivo; for clearance: read-out: PK-Mouse: IV Cl; for bioavailability: read-out: PK-Mouse: PO F (%)
[2] = target: DNA-PK (Homo sapiens (Human), UniProt P78527); assay: Selectivity against selected lipid kinases: DNA-PK; format: biochemical
[3] = tested on: T-47D; assay: Cellular Assay T-47D; format: cell-based; conditions: Homo sapiens, T47D; T-47D cells
[4] = target: PI3K-B (Homo sapiens (Human), UniProt P42338); assay: Selectivity against selected lipid kinases: PI3K-B; format: biochemical
Sequence of PI3K-B (P42338 whole entry): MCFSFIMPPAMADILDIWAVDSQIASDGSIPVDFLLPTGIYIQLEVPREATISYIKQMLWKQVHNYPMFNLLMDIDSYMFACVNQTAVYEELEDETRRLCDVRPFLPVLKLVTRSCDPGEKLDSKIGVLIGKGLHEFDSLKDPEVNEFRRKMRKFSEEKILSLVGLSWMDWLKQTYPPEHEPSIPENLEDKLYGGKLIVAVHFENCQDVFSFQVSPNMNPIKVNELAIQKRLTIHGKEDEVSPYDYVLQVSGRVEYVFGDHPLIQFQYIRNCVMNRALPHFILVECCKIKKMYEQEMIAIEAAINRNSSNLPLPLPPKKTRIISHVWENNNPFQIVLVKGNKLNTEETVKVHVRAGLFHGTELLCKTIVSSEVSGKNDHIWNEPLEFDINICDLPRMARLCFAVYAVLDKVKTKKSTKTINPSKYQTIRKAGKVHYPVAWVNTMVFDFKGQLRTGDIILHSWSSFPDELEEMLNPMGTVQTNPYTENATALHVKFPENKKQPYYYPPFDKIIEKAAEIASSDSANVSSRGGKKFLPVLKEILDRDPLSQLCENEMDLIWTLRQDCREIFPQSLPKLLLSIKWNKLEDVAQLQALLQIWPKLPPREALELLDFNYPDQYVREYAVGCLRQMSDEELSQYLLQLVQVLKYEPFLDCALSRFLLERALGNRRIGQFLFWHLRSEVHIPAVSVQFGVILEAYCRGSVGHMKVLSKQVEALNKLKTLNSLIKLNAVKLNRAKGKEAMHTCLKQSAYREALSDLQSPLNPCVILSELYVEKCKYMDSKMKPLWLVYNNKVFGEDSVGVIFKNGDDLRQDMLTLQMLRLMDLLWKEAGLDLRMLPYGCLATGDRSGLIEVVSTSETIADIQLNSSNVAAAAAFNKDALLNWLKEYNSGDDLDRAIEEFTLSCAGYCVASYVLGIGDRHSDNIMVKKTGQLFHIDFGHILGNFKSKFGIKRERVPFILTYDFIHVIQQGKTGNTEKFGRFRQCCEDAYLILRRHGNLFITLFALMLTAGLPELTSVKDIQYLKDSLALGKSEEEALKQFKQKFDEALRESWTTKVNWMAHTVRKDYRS
Sequence of PI3K-B (P27986 whole entry partner): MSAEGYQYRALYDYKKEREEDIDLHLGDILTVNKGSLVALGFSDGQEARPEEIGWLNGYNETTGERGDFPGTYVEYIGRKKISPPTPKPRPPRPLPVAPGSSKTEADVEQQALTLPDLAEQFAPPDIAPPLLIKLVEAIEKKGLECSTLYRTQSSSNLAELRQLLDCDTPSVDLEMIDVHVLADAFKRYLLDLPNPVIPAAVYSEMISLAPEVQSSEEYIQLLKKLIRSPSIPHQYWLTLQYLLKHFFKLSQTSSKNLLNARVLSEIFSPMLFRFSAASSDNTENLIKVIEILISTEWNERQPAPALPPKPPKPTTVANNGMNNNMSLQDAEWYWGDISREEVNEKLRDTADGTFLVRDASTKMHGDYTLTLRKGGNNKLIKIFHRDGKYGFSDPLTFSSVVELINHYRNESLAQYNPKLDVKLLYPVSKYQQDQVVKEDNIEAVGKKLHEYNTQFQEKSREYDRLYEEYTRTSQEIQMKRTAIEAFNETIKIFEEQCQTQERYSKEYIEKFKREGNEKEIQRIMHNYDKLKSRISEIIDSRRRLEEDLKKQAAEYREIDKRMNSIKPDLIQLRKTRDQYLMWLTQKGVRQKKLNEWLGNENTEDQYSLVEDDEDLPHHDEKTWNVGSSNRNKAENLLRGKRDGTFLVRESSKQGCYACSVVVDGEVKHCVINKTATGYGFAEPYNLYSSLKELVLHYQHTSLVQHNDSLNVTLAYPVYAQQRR

[5] = target: Vps34 (Homo sapiens (Human), UniProt Q8NEB9); assay: Selectivity against selected lipid kinases: Vps34; format: biochemical
Sequence of Vps34 (Q8NEB9 whole entry, species assumed): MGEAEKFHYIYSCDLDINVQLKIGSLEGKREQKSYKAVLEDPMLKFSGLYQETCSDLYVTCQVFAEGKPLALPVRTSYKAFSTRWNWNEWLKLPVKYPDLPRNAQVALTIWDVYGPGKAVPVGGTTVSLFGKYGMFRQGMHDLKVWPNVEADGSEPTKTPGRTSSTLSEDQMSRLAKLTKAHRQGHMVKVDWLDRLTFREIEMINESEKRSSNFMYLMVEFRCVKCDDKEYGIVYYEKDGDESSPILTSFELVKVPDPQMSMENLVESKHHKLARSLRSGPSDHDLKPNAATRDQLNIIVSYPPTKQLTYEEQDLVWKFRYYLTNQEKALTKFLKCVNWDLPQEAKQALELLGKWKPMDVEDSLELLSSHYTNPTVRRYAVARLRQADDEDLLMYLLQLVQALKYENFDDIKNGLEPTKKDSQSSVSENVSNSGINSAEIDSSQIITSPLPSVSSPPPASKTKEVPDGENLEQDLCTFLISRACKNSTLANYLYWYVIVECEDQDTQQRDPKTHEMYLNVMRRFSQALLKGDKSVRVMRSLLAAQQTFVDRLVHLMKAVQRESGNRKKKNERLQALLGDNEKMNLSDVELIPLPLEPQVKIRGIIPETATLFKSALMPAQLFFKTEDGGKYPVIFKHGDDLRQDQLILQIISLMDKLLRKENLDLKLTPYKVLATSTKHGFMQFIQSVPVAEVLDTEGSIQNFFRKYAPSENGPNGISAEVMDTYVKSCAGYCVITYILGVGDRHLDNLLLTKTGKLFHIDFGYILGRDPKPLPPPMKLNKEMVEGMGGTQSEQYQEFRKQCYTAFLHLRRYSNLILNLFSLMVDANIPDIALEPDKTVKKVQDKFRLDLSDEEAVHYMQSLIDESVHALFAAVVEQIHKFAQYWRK

[6] = target: mTOR (Homo sapiens (Human), UniProt P42345); assay: Selectivity against selected lipid kinases: mTOR; format: biochemical
[7] = target: PI3K-D (Homo sapiens (Human), UniProt O00329); assay: Selectivity against selected lipid kinases: PI3K-D; format: biochemical
[8] = target: PI3K-G (Homo sapiens (Human), UniProt P48736); assay: Selectivity against selected lipid kinases: PI3K-G; format: biochemical
Sequence of PI3K-G (P48736 whole entry): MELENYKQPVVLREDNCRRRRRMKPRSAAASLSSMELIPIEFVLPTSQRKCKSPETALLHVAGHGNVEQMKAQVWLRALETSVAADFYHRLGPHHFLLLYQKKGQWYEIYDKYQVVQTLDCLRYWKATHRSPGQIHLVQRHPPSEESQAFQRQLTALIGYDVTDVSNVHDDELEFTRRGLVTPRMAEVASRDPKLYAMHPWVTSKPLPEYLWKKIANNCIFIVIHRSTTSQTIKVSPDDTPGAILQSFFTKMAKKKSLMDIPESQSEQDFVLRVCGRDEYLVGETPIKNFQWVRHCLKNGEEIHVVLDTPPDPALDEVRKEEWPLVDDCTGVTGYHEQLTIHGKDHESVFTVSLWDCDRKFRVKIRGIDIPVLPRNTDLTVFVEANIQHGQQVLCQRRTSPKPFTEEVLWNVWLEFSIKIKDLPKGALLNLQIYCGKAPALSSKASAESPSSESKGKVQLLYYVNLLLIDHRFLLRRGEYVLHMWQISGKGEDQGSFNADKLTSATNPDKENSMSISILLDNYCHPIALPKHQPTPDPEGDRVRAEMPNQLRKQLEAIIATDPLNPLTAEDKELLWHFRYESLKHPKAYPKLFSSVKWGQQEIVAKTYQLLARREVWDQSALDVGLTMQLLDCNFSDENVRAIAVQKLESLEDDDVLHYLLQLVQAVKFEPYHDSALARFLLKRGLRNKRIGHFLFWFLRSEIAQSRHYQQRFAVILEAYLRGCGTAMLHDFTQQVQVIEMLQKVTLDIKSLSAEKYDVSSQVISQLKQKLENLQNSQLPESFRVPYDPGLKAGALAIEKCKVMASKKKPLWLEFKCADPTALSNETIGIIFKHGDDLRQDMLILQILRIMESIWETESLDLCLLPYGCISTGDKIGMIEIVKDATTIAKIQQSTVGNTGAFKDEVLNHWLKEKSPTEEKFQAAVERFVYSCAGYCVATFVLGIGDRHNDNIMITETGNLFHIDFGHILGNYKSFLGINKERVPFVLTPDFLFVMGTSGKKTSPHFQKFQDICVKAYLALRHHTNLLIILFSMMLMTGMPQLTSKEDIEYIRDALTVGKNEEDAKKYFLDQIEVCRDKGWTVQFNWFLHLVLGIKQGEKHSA

[9] = target: human full length PIK3CA H1047R mutant (p110α/p85α complex) (Homo sapiens (Human), UniProt P42336, H1047R); assay: PI3K-Alpha kinase (PIK3CA) activity, H1047R mutant, Transcreener ADP2 FI assay; conditions: PI3K-α (PIK3CA) H1047R mutant, biochemical
Sequence of human full length PIK3CA H1047R mutant (p110α/p85α complex) (P42336 whole entry H1047R): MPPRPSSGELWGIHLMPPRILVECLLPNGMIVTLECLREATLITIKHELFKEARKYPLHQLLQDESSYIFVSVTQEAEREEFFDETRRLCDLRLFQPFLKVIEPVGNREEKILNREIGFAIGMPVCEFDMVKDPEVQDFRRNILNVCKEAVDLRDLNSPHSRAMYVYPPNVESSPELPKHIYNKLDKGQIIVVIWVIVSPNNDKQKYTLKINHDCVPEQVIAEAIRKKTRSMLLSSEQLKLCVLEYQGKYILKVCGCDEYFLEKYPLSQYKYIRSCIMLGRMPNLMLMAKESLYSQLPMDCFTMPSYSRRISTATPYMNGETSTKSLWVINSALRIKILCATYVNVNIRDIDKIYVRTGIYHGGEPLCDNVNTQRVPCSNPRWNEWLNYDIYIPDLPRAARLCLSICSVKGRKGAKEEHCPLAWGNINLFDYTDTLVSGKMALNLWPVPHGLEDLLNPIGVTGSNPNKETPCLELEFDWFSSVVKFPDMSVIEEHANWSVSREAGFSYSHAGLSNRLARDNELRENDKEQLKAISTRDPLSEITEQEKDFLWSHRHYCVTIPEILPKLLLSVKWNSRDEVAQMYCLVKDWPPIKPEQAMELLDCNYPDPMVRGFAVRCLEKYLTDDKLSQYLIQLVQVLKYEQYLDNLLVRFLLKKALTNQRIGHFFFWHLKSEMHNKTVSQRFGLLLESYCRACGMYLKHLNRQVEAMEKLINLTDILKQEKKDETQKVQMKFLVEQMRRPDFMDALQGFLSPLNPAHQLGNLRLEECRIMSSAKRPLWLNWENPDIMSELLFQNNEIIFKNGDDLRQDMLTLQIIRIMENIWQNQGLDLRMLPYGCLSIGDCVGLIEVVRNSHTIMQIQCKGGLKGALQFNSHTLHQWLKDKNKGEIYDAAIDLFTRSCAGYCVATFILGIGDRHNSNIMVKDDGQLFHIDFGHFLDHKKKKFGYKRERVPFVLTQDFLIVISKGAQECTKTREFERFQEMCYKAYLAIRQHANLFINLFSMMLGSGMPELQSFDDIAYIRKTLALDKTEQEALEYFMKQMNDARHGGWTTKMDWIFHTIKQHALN
Sequence of human full length PIK3CA H1047R mutant (p110α/p85α complex) (P27986 whole entry partner): as the sequence (P27986 whole entry partner) above
Method in brief: (§1)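 Recombinant full-length p110α/p85α (1-5 nM, wild-type or H1047R) preincubated with compound 1 h at 27° C, then reacted with 25 uM ATP and 50 uM PIP2diC8 or membrane PIP2:PS in pH 7.4 HEPES, 25 mM MgCl2, 5% DMSO (also pH 6.0/6.4 MOPS). Run to ~2.5 uM ADP; Transcreener ADP2 fluorescence converted via ADP calibration for IC50.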

[10] = target: human full length PIK3CA Wild-type (p110α/p85α complex) (Homo sapiens (Human), UniProt P42336); assay: PI3K-Alpha kinase (PIK3CA) activity, wild-type, Transcreener ADP2 FI assay; conditions: PI3K-α (PIK3CA) wild-type, biochemical
Sequence of human full length PIK3CA Wild-type (p110α/p85α complex) (P42336 whole entry): as the sequence (P42336 whole entry H1047R) above, with R1047H counted along it
Sequence of human full length PIK3CA Wild-type (p110α/p85α complex) (P27986 whole entry partner): as the sequence (P27986 whole entry partner) above
Method in brief: as §1

[11] = IV 1 mg/kg, read-out: PK-Mouse: IV-AUC-0-last
[12] = PO 10 mg/kg, 30% SBE-beta-cyclodextrin, fed
[13] = PO 50 mg/kg, 20% DMSO/60% PEG400/20% Water, fed
[14] = PO 50 mg/kg, 20% DMSO/60% PEG400/20% Water, fed, read-out: PK-Mouse: PO AUC-0-last
[15] = PO 10 mg/kg, 20% DMSO/60% PEG400/20% Water, fed

Row | clearance ([1]; IV 1 mg/kg) [mL/min/kg] | AUC(0-t) [1, 11] [ng·h/mL] | Cmax [1, 13] [ng/mL] | AUC(0-t) [1, 14] [ng·h/mL] | pIC50 [2] | pEC50 [3] | pIC50 [4] | pIC50 [5] | pIC50 [6] | pIC50 [7] | pIC50 [8] | pIC50 [9] | pIC50 [10] | further results | SMILES
1 | 43 | 343 | 8.56 | 48 | < 5.00 | 5.30 to 6.00 | < 5.00 | < 5.00 | < 5.00 | < 5.00 | < 5.00 |  |  | Cmax [1, 12]: 350 ng/mL; AUC(0-t) ([1]; PO 10 mg/kg, 30% SBE-beta-cyclodextrin, fed, read-out: PK-Mouse: PO AUC-0-last): 3.9 ng·h/mL; bioavailability [1, 12]: 100%; Cmax ([1]; PO 100 mg/kg, 20% DMSO/60% PEG400/20% H2O, fed): 22.6 ng/mL; AUC(0-t) ([1]; PO 100 mg/kg, 20% DMSO/60% PEG400/20% H2O, fed, read-out: PK-Mouse: PO AUC-0-last): 76 ng·h/mL | Cc1cc(C(C)Nc2ccccc2C(=O)O)c2oc(N3CCC(C)(C)CC3)cc(=O)c2c1 (single isomer, unassigned) [Example 366, 2-[1-[2-(4,4-Dimethyl-1-piperidyl)-6-methyl-4-oxo-chromen-8-yl]ethylamino]benzoic acid]
2 | 8.2 | 2130 | 5100 | 31000 | 6.01 | 5.30 to 6.00 | 6.96 | 6.35 | 5.11 | < 5.00 | < 5.00 |  |  | Cmax [1, 15]: 1300 ng/mL; AUC(0-t) ([1]; PO 10 mg/kg, 20% DMSO/60% PEG400/20% Water, fed, read-out: PK-Mouse: PO AUC-0-last): 18000 ng·h/mL; bioavailability [1, 15]: 87%; bioavailability [1, 13]: 33% | Cc1cc(C(C)Nc2ccccc2C(=O)O)c2oc(N3Cc4ccccc4C3)cc(=O)c2c1 (single isomer, unassigned) [Example 363, 2-[1-(2-Isoindolin-2-yl-6-methyl-4-oxo-chromen-8-yl)ethylamino]benzoic acid]
3 |  |  |  |  |  | 5.30 to 6.00 |  |  |  |  |  | > 6.30 | 5.30 to 6.00 |  | Cc1cc(C(C)Nc2ccccc2C(=O)O)c2oc(N3CCC(F)(F)CC3)cc(=O)c2c1 (single isomer, unassigned) [Example 130, 2-[1-[2-(4,4-Difluoro-1-piperidyl)-6-methyl-4-oxo-chromen-8-yl]ethylamino]benzoic acid]
4 |  |  |  |  |  | 5.30 to 6.00 |  |  |  |  |  | 6.00 to 6.30 | 5.30 to 6.00 |  | Cc1cc(C(C)Nc2ccccc2C(=O)O)c2oc(N3CCC4(CCCC4)CC3)cc(=O)c2c1 (stereo not shown) [Example 96, 2-[1-[2-(8-Azaspiro[4.5]decan-8-yl)-6-methyl-4-oxo-chromen-8-yl]ethylamino]benzoic acid]
